Measurements from PubChem BioAssay AID2060621 (Molecular Pharmacology Branch, DTP, NCI, 2025).
Several values for one entry are separate records, joined by “and”; a condition that tells them apart may be missing. Identical values can stand only once.

System: 324938-238-R-J1-PDC complex spheroids viability
Test: Anticancer human tumor 324938-238-R-J1-PDC patient-derived bladder carcinoma cell line growth inhibition [CLK]
Conditions: for viability, T/C: stronger effect = lower value
Summary of the method: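 Patient-derived tumor cells grown as complex spheroids with HUVEC endothelial cells and mesenchymal stem cells, treated with drug combinations. Concentrations descend in half-log steps from near clinical Cmax, or from 10 microM if Cmax unknown.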

[1] = curve of first compound, second compound 0.0316 µM
[2] = curve of first compound, second compound 0.1 µM
[3] = curve of first compound, second compound 0.316 µM
[4] = curve of first compound, second compound 1 µM
[5] = curve of first compound, second compound 3.16 µM
[6] = curve of first compound, second compound 10 µM
[7] = second compound 0.0316 µM, first compound 0.0316 µM
[8] = second compound 0.0316 µM, first compound 0.1 µM
[9] = second compound 0.0316 µM, first compound 0.316 µM
[10] = second compound 0.0316 µM, first compound 1 µM
[11] = second compound 0.1 µM, first compound 0.0316 µM
[12] = second compound 0.1 µM, first compound 0.1 µM
[13] = second compound 0.1 µM, first compound 0.316 µM
[14] = second compound 0.1 µM, first compound 1 µM
[15] = second compound 0.316 µM, first compound 0.0316 µM
[16] = second compound 0.316 µM, first compound 0.1 µM
[17] = second compound 0.316 µM, first compound 0.316 µM
[18] = second compound 0.316 µM, first compound 1 µM
[19] = second compound 1 µM, first compound 0.0316 µM
[20] = second compound 1 µM, first compound 0.1 µM
[21] = second compound 1 µM, first compound 0.316 µM
[22] = second compound 1 µM, first compound 1 µM
[23] = second compound 3.16 µM, first compound 0.0316 µM
[24] = second compound 3.16 µM, first compound 0.1 µM
[25] = second compound 3.16 µM, first compound 0.316 µM
[26] = second compound 3.16 µM, first compound 1 µM
[27] = second compound 10 µM, first compound 0.0316 µM
[28] = second compound 10 µM, first compound 0.1 µM
[29] = second compound 10 µM, first compound 0.316 µM
[30] = second compound 10 µM, first compound 1 µM
[31] = second compound 0.0316 µM, first compound 3.16 µM
[32] = second compound 0.0316 µM, first compound 10 µM
[33] = second compound 0.1 µM, first compound 3.16 µM
[34] = second compound 0.1 µM, first compound 10 µM
[35] = second compound 0.316 µM, first compound 3.16 µM
[36] = second compound 0.316 µM, first compound 10 µM
[37] = second compound 1 µM, first compound 3.16 µM
[38] = second compound 1 µM, first compound 10 µM
[39] = second compound 3.16 µM, first compound 3.16 µM
[40] = second compound 3.16 µM, first compound 10 µM
[41] = second compound 10 µM, first compound 3.16 µM
[42] = second compound 10 µM, first compound 10 µM
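Further: viability read after seven days of drug exposure.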
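Wherever viability, T/C is given: 100% = DMSO vehicle control wells.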

CCc1c2c(nc3ccc(O)cc13)-c1cc3c(c(=O)n1C2)COC(=O)[C@]3(O)CC + CNC(=O)c1ccc(Nc2nc(OC3CCCC3)c3c(-c4ccc5nc(C)oc5c4)c[nH]c3n2)c(OC)c1
IC50 [1]: < 3.16 nM | IC50 [2]: < 3.16 nM | IC50 [3]: < 3.16 nM | IC50 [4]: < 3.16 nM | IC50 [5]: < 3.16 nM | IC50 [6]: < 3.16 nM | viability, T/C (second compound 0.0316 µM, first compound 0.00316 µM): 17.9% | viability, T/C (second compound 0.0316 µM, first compound 0.01 µM): 12.3% | viability, T/C [7]: 12.7% | viability, T/C [8]: 13% | viability, T/C [9]: 11.2% | viability, T/C [10]: 2.24% | viability, T/C (second compound 0.1 µM, first compound 0.00316 µM): 17.9% | viability, T/C (second compound 0.1 µM, first compound 0.01 µM): 13.3% | viability, T/C [11]: 12.5% | viability, T/C [12]: 12.7% | viability, T/C [13]: 11.3% | viability, T/C [14]: 2.05% | viability, T/C (second compound 0.316 µM, first compound 0.00316 µM): 14.6% | viability, T/C (second compound 0.316 µM, first compound 0.01 µM): 11.1% | viability, T/C [15]: 11.8% | viability, T/C [16]: 12.1% | viability, T/C [17]: 9.98% | viability, T/C [18]: 1.99% | viability, T/C (second compound 1 µM, first compound 0.00316 µM): 12.2% | viability, T/C (second compound 1 µM, first compound 0.01 µM): 9.22% | viability, T/C [19]: 10.1% | viability, T/C [20]: 8.69% | viability, T/C [21]: 8.5% | viability, T/C [22]: 1.33% | viability, T/C (second compound 3.16 µM, first compound 0.00316 µM): 11.4% | viability, T/C (second compound 3.16 µM, first compound 0.01 µM): 9.74% | viability, T/C [23]: 8.18% | viability, T/C [24]: 8% | viability, T/C [25]: 6.57% | viability, T/C [26]: 1.29% | viability, T/C (second compound 10 µM, first compound 0.00316 µM): 10.2% | viability, T/C (second compound 10 µM, first compound 0.01 µM): 10.8% | viability, T/C [27]: 8.22% | viability, T/C [28]: 8.16% | viability, T/C [29]: 6.28% | viability, T/C [30]: 1.01%

CCN1CCN(Cc2ccc(Nc3ncc(F)c(-c4cc(F)c5nc(C)n(C(C)C)c5c4)n3)nc2)CC1
viability, T/C (compound 0.00316 µM): 74.7% and 81.3% | viability, T/C (compound 0.01 µM): 69.6% and 74.1% | viability, T/C (compound 0.0316 µM): 60% and 54.8% | viability, T/C (compound 0.1 µM): 41.8% and 48.6% | viability, T/C (compound 0.316 µM): 37% and 36.6% | viability, T/C (compound 1 µM): 36.5% and 46.5% | IC50 (curve of compound): 59.4 nM and 60.2 nM

CC(=O)O[C@H]1C(=O)[C@@]2(C)[C@H]([C@H](OC(=O)c3ccccc3)[C@]3(O)C[C@H](OC(=O)[C@H](O)[C@@H](NC(=O)c4ccccc4)c4ccccc4)C(C)=C1C3(C)C)[C@]1(OC(C)=O)CO[C@@H]1C[C@@H]2O + CNC(=O)c1ccc(Nc2nc(OC3CCCC3)c3c(-c4ccc5nc(C)oc5c4)c[nH]c3n2)c(OC)c1
IC50 [1]: < 31.6 nM | IC50 [2]: < 31.6 nM | IC50 [3]: < 31.6 nM | IC50 [4]: < 31.6 nM | IC50 [5]: < 31.6 nM | IC50 [6]: < 31.6 nM | viability, T/C [7]: 14.3% | viability, T/C [8]: 15.1% | viability, T/C [9]: 13.8% | viability, T/C [10]: 14.1% | viability, T/C [31]: 17.1% | viability, T/C [32]: 22% | viability, T/C [11]: 19.8% | viability, T/C [12]: 17.3% | viability, T/C [13]: 22.2% | viability, T/C [14]: 21.9% | viability, T/C [33]: 27.4% | viability, T/C [34]: 35.1% | viability, T/C [15]: 16.9% | viability, T/C [16]: 17.5% | viability, T/C [17]: 26.2% | viability, T/C [18]: 27.8% | viability, T/C [35]: 35.2% | viability, T/C [36]: 37% | viability, T/C [19]: 17.1% | viability, T/C [20]: 17.7% | viability, T/C [21]: 23.9% | viability, T/C [22]: 24.2% | viability, T/C [37]: 31.9% | viability, T/C [38]: 28.6% | viability, T/C [23]: 16.6% | viability, T/C [24]: 18.2% | viability, T/C [25]: 20.1% | viability, T/C [26]: 24.6% | viability, T/C [39]: 27.2% | viability, T/C [40]: 27.2% | viability, T/C [27]: 16.9% | viability, T/C [28]: 18.1% | viability, T/C [29]: 20.6% | viability, T/C [30]: 23.5% | viability, T/C [41]: 25.1% | viability, T/C [42]: 25.6%

C=CC(=O)N1CCN(c2nc(=O)n(-c3c(C)ccnc3C(C)C)c3nc(-c4c(O)cccc4F)c(F)cc23)C(C)C1 (stereo not given)
viability, T/C (compound 0.0316 µM): 79.1% and 96.4% | viability, T/C (compound 0.1 µM): 91.3% and 85% | viability, T/C (compound 0.316 µM): 85.2% and 93.5% | viability, T/C (compound 1 µM): 102% and 99.9% | viability, T/C (compound 3.16 µM): 105% and 99.1% | viability, T/C (compound 10 µM): 87.9% and 86.4% | IC50 (curve of compound): > 10000 nM

C=C(F)C(=O)N1CCN(c2nc(OCC3CCCN3C)nc3c2CCN(c2cccc4cccc(Cl)c24)C3)CC1CC#N (stereo not given) + CNC(=O)c1ccc(Nc2nc(OC3CCCC3)c3c(-c4ccc5nc(C)oc5c4)c[nH]c3n2)c(OC)c1
IC50 [1]: 2360 nM | IC50 [2]: < 31.6 nM | IC50 [3]: < 31.6 nM | IC50 [4]: < 31.6 nM | IC50 [5]: < 31.6 nM | IC50 [6]: < 31.6 nM | viability, T/C [7]: 89% | viability, T/C [8]: 82.6% | viability, T/C [9]: 83.2% | viability, T/C [10]: 75.7% | viability, T/C [31]: 41.3% | viability, T/C [32]: 0.18% | viability, T/C [11]: 23.1% | viability, T/C [12]: 24.9% | viability, T/C [13]: 25.2% | viability, T/C [14]: 23.1% | viability, T/C [33]: 24.9% | viability, T/C [34]: 0.17% | viability, T/C [15]: 16.2% | viability, T/C [16]: 16.2% | viability, T/C [17]: 17.7% | viability, T/C [18]: 20.2% | viability, T/C [35]: 16.7% | viability, T/C [36]: 0.14% | viability, T/C [19]: 18% | viability, T/C [20]: 17% | viability, T/C [21]: 15.3% | viability, T/C [22]: 17.6% | viability, T/C [37]: 16.4% | viability, T/C [38]: 0.16% | viability, T/C [23]: 17.5% | viability, T/C [24]: 15.3% | viability, T/C [25]: 14.6% | viability, T/C [26]: 16.4% | viability, T/C [39]: 14.5% | viability, T/C [40]: 0.17% | viability, T/C [27]: 16.7% | viability, T/C [28]: 16.8% | viability, T/C [29]: 15.5% | viability, T/C [30]: 18.6% | viability, T/C [41]: 14.3% | viability, T/C [42]: 0.3%
